Assay results published in US20250101436A1, “APTAMERS AND SMALL MOLECULE LIGANDS” (MeiraGTx UK II Limited, priority 2021, published 2025).

These compounds were tested on 12C6-1 riboswitch (assay: Firefly luciferase assay, Luci-12C6-1 riboswitch construct in transfected HEK 293 cells). Details: HEK 293 cells.
Assay type: cell-based, human
From the text: Riboswitch construct: Aptamers were synthesized by Integrated DNA Technologies, Inc. The synthesized aptamer sequence, here referred to as aptamer sequence 12C6-1, contains a putative TPP aptamer sequence (AP008955.1/944373-944459; CP030117.1/954080-954166; CP023474.1/977011-977097) with C at 5′ end and a complementary G at 3′ end flanking the putative TPP aptamer sequence: […] […] (SEQ ID NO: 1). Golden Gate cloning strategy (New England Biolabs, NEB) was used to clone the synthesized aptamer sequences into an intron-exon-intron cassette to replace the guanine aptamer in the G17 riboswitch cassette (see SEQ ID NO: 15 recited in WO 2016/126747, which is incorporated herein in its entirety) to generate riboswitch construct Luci-12C6-1.

Structure (SMILES) | activation of 12C6-1 and derivative riboswitches in regulating Luciferase expression (FIG. 4d)
O=C(O)CCC(=O)Nc1ccc2nccnc2c1 [compound 003] | bind 12C6-1 and activate derivative riboswitches
O=C(CNc1cnccc1N1CCNCC1)Nc1ccc2nccnc2c1 [compound 005] | bind 12C6-1 and activate derivative riboswitches
Cl.c1cc(N2CCNCC2)c(CNCc2ccc3nccnc3c2)cn1 [compound 008] | bind 12C6-1 and activate derivative riboswitches
C=CN(CCN(C)C)Cc1ccc2nccnc2c1 [compound 009] | bind 12C6-1 and activate derivative riboswitches
CN(C)CCNCc1ccc2nccnc2c1 [compound 011] | bind 12C6-1 and activate derivative riboswitches

Same assay, conditions: HEK 293 cells transfected with Luci-12C6-1

Structure (SMILES) | luciferase expression response
CC(=C(CCO)SSCC1CCCO1)N(C=O)Cc1cnc(C)nc1N (stereo in doubt) [fursultiamine, reference compound] | induced luciferase gene expression in a dose-dependent manner
Cc1ncc(C[n+]2csc(CCO[P@](=O)(O)OP(=O)(O)O)c2C)c(N)n1 [TPP, Thiamine Pyrophosphate, reference compound] | dose-dependent response

The compounds below were run on N5-12G6 riboswitch (assay: Firefly luciferase assay, N5-12G6 riboswitch in HEK293 cells). Details: Homo sapiens, HEK293, read-out: Fold induction 2 μM (HEK), 12G6 riboswitch, luciferase, HEK293, 2 μM.

Structure (SMILES) | fold induction at 2 µM
Fc1cncc(NCc2ccc3nccnc3c2)c1O[C@@H]1CCNC1 [compound 109, (R)-5-fluoro-4-(pyrrolidin-3-yloxy)-N-(quinoxalin-6-ylmethyl)pyridin-3-amine] | 54.6
Clc1cncc(NCc2ccc3nccnc3c2)c1O[C@@H]1CCNC1 [compound 110, (R)-5-chloro-4-(pyrrolidin-3-yloxy)-N-(quinoxalin-6-ylmethyl)pyridin-3-amine] | 43.1
Cc1cncc(NCc2ccc3nccnc3c2)c1O[C@@H]1CCNC1 [compound 111, (R)-5-methyl-4-(pyrrolidin-3-yloxy)-N-(quinoxalin-6-ylmethyl)pyridin-3-amine] | 74
Brc1cncc(NCc2ccc3nccnc3c2)c1OC1CNC1 [compound 112, 4-(azetidin-3-yloxy)-5-bromo-N-(quinoxalin-6-ylmethyl)pyridin-3-amine] | 40.9
Cc1cncc(NCc2ccc3nccnc3c2)c1OC1CNC1 [compound 113, 4-(azetidin-3-yloxy)-5-methyl-N-(quinoxalin-6-ylmethyl)pyridin-3-amine] | 31.9
c1cnc2cc(CNc3cnc4[nH]ccc4c3N3CCNCC3)ccc2n1 [compound 114, 4-(piperazin-1-yl)-N-(quinoxalin-6-ylmethyl)-1H-pyrrolo[2,3-b]pyridin-5-amine] | 60.1
c1ccc2c(N3CCNCC3)c(NCc3ccc4nccnc4c3)cnc2c1 [compound 115, 4-(piperazin-1-yl)-N-(quinoxalin-6-ylmethyl)quinolin-3-amine] | 79
COc1cc(N2CCNCC2)c(NCc2ccc3nccnc3c2)cn1 [compound 116, 6-methoxy-4-(piperazin-1-yl)-N-(quinoxalin-6-ylmethyl)pyridin-3-amine] | 50
FC(F)(F)c1cc(N2CCNCC2)c(NCc2ccc3nccnc3c2)cn1 [compound 117, 4-(piperazin-1-yl)-N-(quinoxalin-6-ylmethyl)-6-(trifluoromethyl)pyridin-3-amine] | 30.6
Cc1cc(N2CCNCC2)c(NCc2ccc3nccnc3c2)cn1 [compound 118, 6-methyl-4-(piperazin-1-yl)-N-(quinoxalin-6-ylmethyl)pyridin-3-amine] | 26.2
Fc1cc(CNc2cncc(Cl)c2O[C@@H]2CCNC2)cc2nccnc12 [compound 119, (R)-5-chloro-N-((8-fluoroquinoxalin-6-yl)methyl)-4-(pyrrolidin-3-yloxy)pyridin-3-amine] | 32.5
Fc1cc2nccnc2cc1CNc1cncc(Cl)c1O[C@@H]1CCNC1 [compound 120, (R)-5-chloro-N-((7-fluoroquinoxalin-6-yl)methyl)-4-(pyrrolidin-3-yloxy)pyridin-3-amine] | 24.7
Clc1cc2nccnc2cc1CNc1cncc(Cl)c1O[C@@H]1CCNC1 [compound 121, (R)-5-chloro-N-((7-chloroquinoxalin-6-yl)methyl)-4-(pyrrolidin-3-yloxy)pyridin-3-amine] | 28.2
Cc1cc(CNc2cnccc2O[C@@H]2CCNC2)cc2nccnc12 [compound 122, (R)—N-((8-methylquinoxalin-6-yl)methyl)-4-(pyrrolidin-3-yloxy)pyridin-3-amine] | 35.8
Cc1cc2nccnc2cc1CNc1cnccc1O[C@@H]1CCNC1 [compound 123, (R)—N-((7-methylquinoxalin-6-yl)methyl)-4-(pyrrolidin-3-yloxy)pyridin-3-amine] | 83.9
FC(F)(F)c1cc(CNc2cnccc2O[C@@H]2CCNC2)cc2nccnc12 [compound 124, (R)-4-(pyrrolidin-3-yloxy)-N-((8-(trifluoromethyl)quinoxalin-6-yl)methyl)pyridin-3-amine] | 3
